Source: patent US20240115557A1, “INHIBITORS OF RNA-GUIDED NUCLEASES AND USES THEREOF” (The Brigham and Women's Hospital, Inc., priority 2022, published 2024)

What was measured:
SpCas9 = SpCas9 (Streptococcus pyogenes serotype M1, UniProt Q99ZW2); experiment: HiBiT knock-in assay, SpCas9, HEK293T cells; format: cell-based
From the text: Primary and secondary screening. The primary screen assayed a selection of unique chemical scaffolds derived from commercially available compounds and known bioactive molecular libraries (Table 7). Auto-fluorescent compounds were removed by a counter screen. Overall, the CAA was used to assay 122,409 small molecules with over 2,500 unique chemical scaffolds (FIG. 64F, Table 7). Of these compounds, 547 were selected as hits (Z score >3 in both replicates) for testing in orthogonal cell-based secondary assays. Hits were tested in duplicate in an eGFP disruption assay, wherein U2OS.eGFP.PEST cells^33 transfected with SpCas9 plasmid and eGFP-targeting gRNA plasmid were incubated with 20 μM of the compounds. In this assay, any compound that inhibited SpCas9 would rescue the loss of eGFP fluorescence. Here, toxic and auto-fluorescent compounds with a high GFP signal in cells were removed as false positives. […] Next, Applicants tested the 15 compounds in a luminescence-based gain-of-signal HiBiT knock-in assay, which involves SpCas9-mediated homology-directed tagging of GAPDH with a short peptide that luminesces upon complementation with a subunit derived from nanoluciferase.^34 Complementarily, the eGFP-disruption assay is fluorescence-based and involves error-prone DNA repair. As a counter-screen to remove false positives caused by cell death (viability <80%), the cell viability was measured after incubation.
Approximately 400,000 HEK293T cells were nucleofected with 400 ng of SpCas9 plasmid, 40 ng of GAPDH-targeting gRNA plasmid, and 40 pmol of single-strand oligodeoxynucleotide (ssODN) using SF Cell Line 4D-Nucleofector X Kit (Lonza) following the pulse program of DS-150. For RNP-based genome editing, 10 pmol of Cas9 and 12 pmol of gRNA were mixed and incubated for 5 min. Then, 20 pmol of ssODN was added. Cells were nucleofected with the resulting mixture using the same pulse program. Cells were then transferred to a 96-well plate at the density of 35,000 cells per well, and incubated with indicated amount of compounds for 24 h. Cell viability was measured using PrestoBlue reagent (Thermo) with a SpectraMax M5 (Molecular Devices) at the excitation and emission wavelength of 544 nm and 590 nm, respectively. Next, luminescence measurement was performed using the Nano-Glo HiBiT Lytic Detection System (Promega) according to the manufacturer's protocol with an EnVision Multilabel Plate Reader (PerkinElmer) at the integration time of 0.5 s per well. The resulting luminescence signals were normalized based on the cell viability.^34

SpCas9 expression = experiment: Immunoblotting of SpCas9 expression; format: cell-based; settings: HEK293T and U2OS.eGFP.PEST, 24 h
Description: Approximately 500,000 U20S.eGFP.PEST cells were nucleofected as described above with 500 ng of SpCas9 plasmid. Then, cells were plated in a 12-well plate with indicated amount of compound, and incubated for 24 h. HEK293T cells were transfected with 500 ng SpCas9 plasmid as described above, and incubated with the compound for 24 h in a 24-well plate. Cells were harvested and lysed by RIPA buffer containing Protease Inhibitor Cocktail (Roche). Lysate was cleared by centrifugation at 20,000 g in 4° C., and the supernatant was taken to measure the protein concentration using BCA assay. Approximately […] of the total protein was used for immunoblotting. Rabbit anti-SpCas9 (Abcam #89380, 1:1,000 dilution) and mouse anti-a-tubulin (CST #3873, 1:2,000 dilution) were used as primary antibodies. IRDye 680RD Donkey anti-Rabbit IgG (LI-COR #925-68073, 1:10,000 dilution) and IRDye 800CW Donkey anti-Mouse IgG (LI-COR #925-32212, 1:10,000 dilution) were used as secondary antibodies.

SpCas9, sequence (Q99ZW2 whole entry): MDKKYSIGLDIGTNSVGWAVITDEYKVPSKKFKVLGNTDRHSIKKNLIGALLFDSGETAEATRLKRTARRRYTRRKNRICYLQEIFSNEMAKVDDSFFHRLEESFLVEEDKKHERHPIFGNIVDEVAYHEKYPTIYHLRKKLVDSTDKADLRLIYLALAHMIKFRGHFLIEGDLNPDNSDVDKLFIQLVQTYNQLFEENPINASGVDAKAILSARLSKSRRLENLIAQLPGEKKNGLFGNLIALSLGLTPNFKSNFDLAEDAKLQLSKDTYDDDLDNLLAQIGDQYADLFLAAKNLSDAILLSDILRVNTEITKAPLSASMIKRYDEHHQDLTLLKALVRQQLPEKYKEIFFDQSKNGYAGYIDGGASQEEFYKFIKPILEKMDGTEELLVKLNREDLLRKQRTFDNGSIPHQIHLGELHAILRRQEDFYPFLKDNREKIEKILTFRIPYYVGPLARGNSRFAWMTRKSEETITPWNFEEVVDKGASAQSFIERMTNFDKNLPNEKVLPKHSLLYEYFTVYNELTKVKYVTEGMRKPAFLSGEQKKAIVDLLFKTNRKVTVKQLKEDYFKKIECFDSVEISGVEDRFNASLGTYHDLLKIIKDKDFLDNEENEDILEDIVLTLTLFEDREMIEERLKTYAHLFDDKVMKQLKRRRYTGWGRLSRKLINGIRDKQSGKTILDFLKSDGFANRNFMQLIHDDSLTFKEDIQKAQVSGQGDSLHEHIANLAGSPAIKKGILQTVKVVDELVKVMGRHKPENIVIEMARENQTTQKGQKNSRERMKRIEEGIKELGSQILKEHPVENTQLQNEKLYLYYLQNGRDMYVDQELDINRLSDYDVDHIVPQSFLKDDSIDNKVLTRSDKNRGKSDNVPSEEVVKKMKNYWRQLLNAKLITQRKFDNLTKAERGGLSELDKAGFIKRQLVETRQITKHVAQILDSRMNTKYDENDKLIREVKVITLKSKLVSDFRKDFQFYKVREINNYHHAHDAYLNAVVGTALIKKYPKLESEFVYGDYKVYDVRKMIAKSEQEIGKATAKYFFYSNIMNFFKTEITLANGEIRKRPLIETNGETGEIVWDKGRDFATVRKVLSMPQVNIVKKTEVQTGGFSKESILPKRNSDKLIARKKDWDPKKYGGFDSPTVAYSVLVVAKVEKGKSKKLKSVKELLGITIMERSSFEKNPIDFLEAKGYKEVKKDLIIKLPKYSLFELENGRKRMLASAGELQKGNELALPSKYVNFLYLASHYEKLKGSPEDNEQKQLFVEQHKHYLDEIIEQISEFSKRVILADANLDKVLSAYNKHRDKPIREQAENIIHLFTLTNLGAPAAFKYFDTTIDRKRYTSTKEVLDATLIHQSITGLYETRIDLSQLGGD

O=C(CCS(=O)(=O)c1ccc(Cl)cc1)Nc1nc(-c2ccncc2)cs1 [BRD7586]
EC50 (SpCas9; EC50 in HiBit knockin assay, HEK293T, SpCas9 plasmid, sgRNA plasmid and ssODN, 0.06 uM to 20 uM, 24 h (FIG. 44D)): 5.04 µM | EC50 (SpCas9; EC50 in the HiBiT knock-in assay, from three independent experiments): 5.7 ± 0.36 µM | Effect on SpCas9 expression (SpCas9 expression): without altering its expression
